Common to all, as to format: functional, organism-based
Assay [1] deals with Escherichia coli. As to the kind of experiment: Antimicrobial activity against Escherichia coli ATCC 25922 by Etest.
Assay [2] concerns Escherichia coli. As to the kind of experiment: Antimicrobial activity against drug-resistant Escherichia coli isolate 1 expressing beta-lactamase CTX-M-15 isolated from urine of patient with history of hypertension, hyperlipidemia by Etest.
In assay [3] the test system is Escherichia coli. As to the kind of experiment: Antimicrobial activity against drug-resistant Escherichia coli isolate 1 expressing beta-lactamase CTX-M-15 isolated from urine of patient with history of hypertension, hyperlipidemia by broth microdilution method. (In general: Dilution methods test growth across graded concentrations, often in twofold steps.)
In assay [4] the test system is Escherichia coli. As to the kind of experiment: Antimicrobial activity against drug-resistant Escherichia coli isolate 2 expressing beta-lactamase CTX-M-15 isolated from patient past medical history included multiple courses of compound treatment, multiple sclerosis, pulmonary embolism, seizure disorder, tracheostomy for respiratory failure, gastrostomy secondary to dysphagia, congestive heart failure, diabetes mellitus, and peripheral inserted central by microdilution method.

Assay [5] relates to Escherichia coli. As to the kind of experiment: Antimicrobial activity against drug-resistant Escherichia coli isolate 2 expressing beta-lactamase CTX-M-15 isolated from patient past medical history included multiple courses of compound treatment, multiple sclerosis, pulmonary embolism, seizure disorder, tracheostomy for respiratory failure, gastrostomy secondary to dysphagia, congestive heart failure, diabetes mellitus, and peripheral inserted central by Etest.

Assay [6] concerns Escherichia coli. Put plainly: Antimicrobial activity against Escherichia coli ATCC 25922 by broth microdilution method.

Usually MIC stands for the lowest concentration found to suppress growth. For orientation: MBC means the smallest concentration meeting the test's criterion for killing.

For the sequence COLISTIN, the MIC in the assay with Escherichia coli [1] amounted to 1.5 µg/mL; in the assay with Escherichia coli [2], 16 µg/mL; against Escherichia coli [3], 16 µg/mL; in the assay on Escherichia coli [4] it was 32 µg/mL; with Escherichia coli [5], 16 µg/mL; against Escherichia coli [6], 1 µg/mL. Moreover, the results for the MBC in the assay with Escherichia coli [3], against Escherichia coli [4] and in the assay with Escherichia coli [6] were 16 µg/mL, 32 µg/mL and 1 µg/mL, respectively.

Consider POLYMYXIN B, for which the MIC amounted to 1 µg/mL against Escherichia coli [1]; 16 µg/mL against Escherichia coli [2]; 16 µg/mL with Escherichia coli [3]; 16 µg/mL against Escherichia coli [4]; 24 µg/mL against Escherichia coli [5]; 0.5 µg/mL against Escherichia coli [6]. For the same sequence, the MBC in the assay with Escherichia coli [3] is 32 µg/mL; with Escherichia coli [4] it was 32 µg/mL; against Escherichia coli [6], 0.5 µg/mL.

Source of the values: ChEMBL document CHEMBL1687832, “Polymyxin-resistant clinical isolates of Escherichia coli” (Antimicrob Agents Chemother, 2011).
